Consider 6 molecules from patent US5189038A, “Method of stimulating superoxide generation” (G. D. Searle and Co., priority 1991, dated 1993).

One assay addresses T1, 5-lipoxygenase (Rattus norvegicus, UniProt P12527).
T1 construct: supernatant fraction of Rat Basophilic Leukemia Cell Homogenate (RBL-1) serves as a 5-lipoxygenase enzyme source; endogenous in cells; host or cells: RBL-1 (rat basophilic leukemia) cells, 100,000×g supernatant of homogenate
T1 sequence (P12527 1-673): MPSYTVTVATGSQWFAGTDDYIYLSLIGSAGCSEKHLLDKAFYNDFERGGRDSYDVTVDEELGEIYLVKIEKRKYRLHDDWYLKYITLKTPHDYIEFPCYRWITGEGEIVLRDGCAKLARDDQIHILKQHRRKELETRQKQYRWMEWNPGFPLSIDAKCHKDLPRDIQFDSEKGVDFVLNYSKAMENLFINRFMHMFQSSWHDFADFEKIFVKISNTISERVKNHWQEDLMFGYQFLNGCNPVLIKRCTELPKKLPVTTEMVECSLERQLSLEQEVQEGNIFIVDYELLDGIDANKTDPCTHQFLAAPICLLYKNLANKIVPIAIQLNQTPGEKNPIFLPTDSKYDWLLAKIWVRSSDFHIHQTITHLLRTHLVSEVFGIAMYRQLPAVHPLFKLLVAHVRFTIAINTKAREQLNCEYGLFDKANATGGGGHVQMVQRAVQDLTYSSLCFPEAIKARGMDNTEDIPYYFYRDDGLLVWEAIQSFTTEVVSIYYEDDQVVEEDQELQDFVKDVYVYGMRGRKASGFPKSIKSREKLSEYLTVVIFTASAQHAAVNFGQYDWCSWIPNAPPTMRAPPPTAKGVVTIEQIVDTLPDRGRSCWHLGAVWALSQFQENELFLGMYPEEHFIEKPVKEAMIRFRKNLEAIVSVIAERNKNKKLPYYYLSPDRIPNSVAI
As to the kind of experiment: Inhibition of 5-lipoxygenase, in vitro (5-HETE synthesis by RBL-1 100,000×g supernatant). It is filed as biochemical. Particulars: for IC50: RBL-1 homogenate supernatant, 5-HETE synthesis. As for the experimental part: The compounds of the invention are evaluated with respect to 5-lipoxygenaseinhibition according to the following assay procedure.
Inhibition of 5-lipoxygenase, in vitro:
anti-inflammatory, anti-allergy activities.
The 100,000×g supernatant fraction of Rat Basophilic Leukemia Cell Homogenate (RBL-1) serves as a 5-lipoxygenase enzyme source. The enzyme is incubated with [1-^14 C)-arachidonic acid and Ca++ in the presence and absence of test compound. The product of 5-lipoxygenase, 5-hydroxyeicosatetraenoic acid (5-HETE), is separated by thin-layer chromatography and measured by radioactivity. A compound inhibiting 5-HETE synthesis by 30% or more is considered active at that concentration.

In assay [1] the test system is FMLP-stimulated human neutrophils (superoxide generation). The assay can be described thus: Human neutrophil superoxide generation (FMLP-stimulated, cytochrome C reduction). The assay is classed as cell-based. Particulars: for Stimulation of FMLP Induced Superoxide: concentrations at which compound stimulates: "Stimulates at" concentration range; for activation at 5 µM / activation at 10 µM: read-out: Stimulation of FMLP Induced Superoxide, above control. As for the experimental part: The compounds of the invention are evaluated with respect to superoxide modulating activity according to the following assay procedure:
Human neutrophil superoxide generation: Superoxide generation by formyl-methionyl-leucyl-phenylalanine (FMLP)-stimulated neutrophils was quantitated by the reduction of cytochrome C (Badwey, J. A., Curnutte, J. T. and Karnovsky, M. L., cis-Polyunsaturated fatty acids induce high levels of superoxide production by human neutrophils. J. Biol. Chem. 256: 12640-12643, 1981.) To 5 million neutrophils in 2.85 ml of KrebsRinger phosphate buffer, pH 7.2, 50 ul of inhibitor (in 10% DMSO/buffer), and 50 ul ferricytochrome C (5 mM, stock) were added and preincubated for 3 minutes at 37° C. Absorption measurements at 550 nm were recorded at start of preincubation. Fifty ul FMLP (6 uM, stock) was added to initiate reaction. A plateau was reached within 3 minutes and this reading--initial reading (before addition of FMLP) was used to calculate nanomoles of superoxide generated based on a molar extinction coefficient of 2.1×10^4 cm^-1 mole^-1.
Isolation of human neutrophils: Human neutrophils were isolated from freshly drawn blood of healthy donors. Two ml of 5% dextran (MW 200,000-300,000) in saline was added to 10 ml aliquots of blood, mixed and placed upright for 45 min. at 37° C. Approx. 8-10 ml of the plasma-white cell suspension from the dextran sedimentation was layered on 3 ml of Ficol-paque in a 15 ml tube and centrifuged at 400 g for 30 min. The supernate, containing plasma and platelets, was discarded by aspiration, and the pellet, containing predominantly neutrophils, was resuspended in 1 ml saline. The suspension was transferred to a clean tube, and pooled with other aliquots of blood treated similarly. The pooled suspension was centrifuged at 350 g for 5 min. and supernate discarded. The pellet was resuspended in 5 ml of 0.05% NaCl with a plastic Pasteur pipette for 25 seconds to lyse contaminating red cells, then 5 ml of 1.75% NaCl added to regain isotonicity. The red cell lysing procedure was repeated, the cells suspended in appropriate buffer (depending on assay) and counted.
For comparison the compound of Formula IV, a known 5-lipoxygenase inhibitor described in U.S. Pat. No. 4,755,524 was used. [drawing 20] (±)[2S*-[[3.5-bis(1,1-dimethylethyl)-4-hydroxyphenyl]thio]-1R*-methylpro poxy]acetic acid

Molecules are shown by their SMILES. Several values for one entry are separate records, joined by “and”; a condition that tells them apart may be missing. Equal entries are not always repeated. Structures can show the parent of a compound that is named as a salt.

Molecule `CC(C)C(C)(O)CCSc1cc(C(C)(C)C)c(O)c(C(C)(C)C)c1` (centres unmarked) [Example 10, 2,6-bis(1,1-dimethylethyl)-4-[(3-hydroxy-3,4-dimethylpentyl)thio]phenol] showed an IC50 on 5-lipoxygenase of 790 nM. The “Stimulation of FMLP Induced Superoxide: concentrations at which compound stimulates” value (“Stimulation of FMLP Induced Superoxide” for short) in assay [1] was 5 to 50 µM.

`CC(C)(C)c1cc(SCCC(=O)N2CCN(Cc3ccccc3)CC2)cc(C(C)(C)C)c1O` [Example 8, 1-[3-[[3,5-Bis(1,1-dimethylethyl)4-hydroxyphenyl]thio]-1-oxopropyl]-4-(phenylmethyl)piperazine]: the IC50 on 5-lipoxygenase is 160 nM. Besides, in assay [1] (Homo sapiens, Neutrophil), the activation at 5 µM came to 150% and the activation at 10 µM turned out to be 206%.

As for `CC(C)C(O)CCSc1cc(C(C)(C)C)c(O)c(C(C)(C)C)c1` (centres unmarked) [Example 9, 2,6-bis(1,1-dimethylethyl)-4-[(3-hydroxy-4-methylpentyl)thio]phenol], the IC50 against 5-lipoxygenase was 260 nM. Further, the “Stimulation of FMLP Induced Superoxide” value in assay [1] lay within 5 to 50 µM.

On to `Cc1cccc(C)c1NC(=O)CCSc1cc(C(C)(C)C)c(O)c(C(C)(C)C)c1` [Example 7, 3-[[3,5-bis(1,1-dimethylethyl)-4-hydroxyphenyl]thio]-N-(2,6-dimethylphenyl)propanamide], for which, at 5-lipoxygenase, the IC50 was 230 nM and 330 nM. Also, the “Stimulation of FMLP Induced Superoxide” value in assay [1] was in the range of 3 to 20 µM.

Consider `C[C@H](Sc1cc(C(C)(C)C)c(O)c(C(C)(C)C)c1)[C@@H](C)OCC(=O)O` (relative stereo) [Formula IV, (±)[2S*-[[3.5-bis(1,1-dimethylethyl)-4-hydroxyphenyl]thio]-1R*-methylpropoxy]acetic acid, reference compound], for which the “Effect on 5-lipoxygenase (in words)” value at 5-lipoxygenase is “inhibited both superoxide generation and 5-lipoxygenase”. Moreover, the IC50 in assay [1] (Homo sapiens, Neutrophil, inhibition of FMLP induced superoxide, read-out: Inhibited superoxide generation, IC50) was 11000 nM. The “Effect on superoxide generation (in words)” value in assay [1] (neutrophils) is “inhibited both superoxide generation and 5-lipoxygenase”.

As to `CN(CCc1ccccn1)C(=O)CCSc1cc(C(C)(C)C)c(O)c(C(C)(C)C)c1` [Example 5, 3-[[3,5-bis(1,1-dimethylethyl)-4-hydroxyphenyl]thio]-N-methyl-N-[2-(2-pyridinyl)ethyl]propanamide monohydrochloride], in assay [1] (Homo sapiens, Neutrophil), the activation at 5 µM came to 50% and the activation at 10 µM came out at 227%.
